In the supplement of paper PMC11208160:

Experiment: recombinant UMI read abundance after kanamycin selection (control-corrected) (log10(CPM+1)); higher = more efficient recombination; extreme values may be limits of the assay; sequences stand for … in AGTGCAGAGAAAATCGGCCAGTTTTCTCTGCCTGCAGTCCGCATGCCGTGGGACCCCTTGGGTTCTAACCTGTTGCCTAGATTTATGCAGCGGACTGCCTTTCTCCCAAAGTGATAAACCGG…AGGTTGGTTTCACT; site = the 11-nt donor
In short: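 Sequencing read counts were converted to CPM, averaged over two replicates and scaled by control-derived factors. Results are given as log10(CPM+1). The reads covered the donor–target junction of recombinant UMIs from a pooled Escherichia coli screen of donor and donor-binding-loop pairs for the IS621 bridge recombinase.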
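Also: IS621 bridge recombinase in Escherichia coli cells against a fixed T5 target plasmid.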

Sequence	recombinant UMI read abundance (log10)
TGTTTGGCATGGACCGGTTTTCCCGGTAATCCGTATTTGTG (site TCTTTGGCTCA)	0.00613
TGTTTGGCATGGACCGGTTTTCCCGGTAATCCGTATTTGTG (site TGTTTGGCTCA)	0.161
TGTTTGGCATGGACCGGTTTTCCCGGTAATCCGTATTTGTG (site TTTTTGGCTCA)	0.0036
TTAAATCCATGGACCGGTTTTCCCGGTAATCCGTATTTGGT (site TTAAATCCTAC)	0.0199
TTAATACCATGGACCGGTTTTCCCGGTAATCCGTATTTGAG (site TTAATACCTCT)	0.0468
TTAATTTCATGGACCGGTTTTCCCGGTAATCCGTATTTGCA (site TTAATTTCTTG)	0.69
TTACGTCCATGGACCGGTTTTCCCGGTAATCCGTATTTGCA (site TTACGTCCTTG)	0.977
TTACTACCATGGACCGGTTTTCCCGGTAATCCGTATTTGCG (site TTACTACCTCG)	0.0128
TTAGAACCATGGACCGGTTTTCCCGGTAATCCGTATTTGCA (site TTAGAACCTTG)	0
TTAGCCGCATGGACCGGTTTTCCCGGTAATCCGTATTTGAC (site TTAGCCGCTGT)	2.72
TTAGGATCATGGACCGGTTTTCCCGGTAATCCGTATTTGAT (site TTAGGATCTAT)	2.58
TTAGTTCCATGGACCGGTTTTCCCGGTAATCCGTATTTGTT (site TTAGTTCCTAA)	0.183
TTAGTTGCATGGACCGGTTTTCCCGGTAATCCGTATTTGTG (site TTAGATGCTCA)	0.0164
TTAGTTGCATGGACCGGTTTTCCCGGTAATCCGTATTTGTG (site TTAGCTGCTCA)	0.0133
TTAGTTGCATGGACCGGTTTTCCCGGTAATCCGTATTTGTG (site TTAGGTGCTCA)	0.0142
TTAGTTGCATGGACCGGTTTTCCCGGTAATCCGTATTTGTG (site TTAGTTGCTCA)	1.15
TTATAGGCATGGACCGGTTTTCCCGGTAATCCGTATTTGGA (site TTATAGGCTTC)	0.419
TTATGAGCATGGACCGGTTTTCCCGGTAATCCGTATTTGTC (site TTATGAGCTGA)	2.45
TTATGTGCATGGACCGGTTTTCCCGGTAATCCGTATTTGCT (site TTATGTGCTAG)	2.36

Sequence	recombinant UMI read abundance (log10)
TTATTACCATGGACCGGTTTTCCCGGTAATCCGTATTTGAG (site TTATTACCTCT)	0.00691
TTATTTGCATGGACCGGTTTTCCCGGTAATCCGTATTTGTA (site TTATTTGCTTA)	0.103
TTCAACTCATGGACCGGTTTTCCCGGTAATCCGTATTTGAC (site TTCAACTCTGT)	0
TTCAATTCATGGACCGGTTTTCCCGGTAATCCGTATTTGGG (site TTCAATTCTCC)	0
TTCCACCCATGGACCGGTTTTCCCGGTAATCCGTATTTGTA (site TTCCACCCTTA)	0.00477
TTCCAGGCATGGACCGGTTTTCCCGGTAATCCGTATTTGAG (site TTCCAGGCTCT)	0.0112
TTCCCGCCATGGACCGGTTTTCCCGGTAATCCGTATTTGAA (site TTCCCGCCTTT)	0.0206
TTCCCTTCATGGACCGGTTTTCCCGGTAATCCGTATTTGTA (site TTCCCTTCTTA)	0
TTCCGAACATGGACCGGTTTTCCCGGTAATCCGTATTTGGT (site TTCCGAACTAC)	0.00692
TTCCTGGCATGGACCGGTTTTCCCGGTAATCCGTATTTGAG (site TTCCTGGCTCT)	0.00387
TTCCTGTCATGGACCGGTTTTCCCGGTAATCCGTATTTGAA (site TTCCTGTCTTT)	0.0685
TTCGCCACATGGACCGGTTTTCCCGGTAATCCGTATTTGAG (site TTCGCCACTCT)	0
TTCGCTACATGGACCGGTTTTCCCGGTAATCCGTATTTGGC (site TTCGCTACTGC)	0
TTCGGATCATGGACCGGTTTTCCCGGTAATCCGTATTTGCT (site TTCGGATCTAG)	0
TTCGGGCCATGGACCGGTTTTCCCGGTAATCCGTATTTGCC (site TTCGGGCCTGG)	0
TTCGTATCATGGACCGGTTTTCCCGGTAATCCGTATTTGAC (site CTAGTATCTGT)	0
TTCGTATCATGGACCGGTTTTCCCGGTAATCCGTATTTGAC (site TTCGTATCTGT)	0
TTCTGAGCATGGACCGGTTTTCCCGGTAATCCGTATTTGCT (site TTCTGAGCTAG)	0.802
TTCTTCGCATGGACCGGTTTTCCCGGTAATCCGTATTTGCG (site TTCTTCGCTCG)	0.00387

Sequence	recombinant UMI read abundance (log10)
TTGAATCCATGGACCGGTTTTCCCGGTAATCCGTATTTGTT (site CGGAATCCTAA)	0
TTGAATCCATGGACCGGTTTTCCCGGTAATCCGTATTTGTT (site TTGAATCCTAA)	0.901
TTGAATTCATGGACCGGTTTTCCCGGTAATCCGTATTTGTT (site TTGAATTCTAA)	0
TTGCACGCATGGACCGGTTTTCCCGGTAATCCGTATTTGGT (site TTGCACGCTAC)	0.647
TTGCCGTCATGGACCGGTTTTCCCGGTAATCCGTATTTGGT (site TTGCCGTCTAC)	0.144
TTGCCTTCATGGACCGGTTTTCCCGGTAATCCGTATTTGGT (site TAGCCTTCTAC)	0.0133
TTGCCTTCATGGACCGGTTTTCCCGGTAATCCGTATTTGGT (site TCGCCTTCTAC)	0.00778
TTGCCTTCATGGACCGGTTTTCCCGGTAATCCGTATTTGGT (site TGGCCTTCTAC)	0.0098
TTGCCTTCATGGACCGGTTTTCCCGGTAATCCGTATTTGGT (site TTGCCTTCTAC)	0.00638
TTGCGGGCATGGACCGGTTTTCCCGGTAATCCGTATTTGGA (site TTGCGGGCTTC)	0.00996
TTGCGGGCATGGACCGGTTTTCCCGGTAATCCGTATTTGGG (site TTGCGGGCTCC)	0.00376
TTGCGTTCATGGACCGGTTTTCCCGGTAATCCGTATTTGTC (site TTGCGTTCTGA)	0
TTGCTGGCATGGACCGGTTTTCCCGGTAATCCGTATTTGAG (site TTGCTGGCTCT)	0
TTGCTTACATGGACCGGTTTTCCCGGTAATCCGTATTTGAC (site TTGCTTACTGT)	0
TTGGAATCATGGACCGGTTTTCCCGGTAATCCGTATTTGCG (site TAGGAATCTCG)	1.81
TTGGAATCATGGACCGGTTTTCCCGGTAATCCGTATTTGCG (site TCGGAATCTCG)	0.968
TTGGAATCATGGACCGGTTTTCCCGGTAATCCGTATTTGCG (site TGGGAATCTCG)	0.00536
TTGGAATCATGGACCGGTTTTCCCGGTAATCCGTATTTGCG (site TTGGAATCTCG)	2.27
TTGGCAACATGGACCGGTTTTCCCGGTAATCCGTATTTGCT (site TTGGCAACTAG)	0.0704
